# Results: patent US20220267857A1, “METHOD FOR DETERMINING THE RESPONSE TO TREATMENT OF A PATIENT AFFECTED BY NON-SMALL CELL LUNG CARCINOMA (NSCLC)” (FUNDACIÓN PARA LA INVESTIGACIÓN BIOMÉDIKCA DEL HOSPITAL …, priority 2019, published 2022)
# Experiments:
# Experiment in all cases: Viability curves to CDDP, resistant vs sensitive subtype
# Format in all cases: cell-based
# [1] = system: A2780S/A2780R ovarian cancer cell lines; settings: IC50 of resistant cell line/IC50 of sensitive cell line, p<0.001
# Method: (§1) FIG. 1. Viability curves to CDDP and CBDCA. The curves show CDDP resistance of cells (A) H23R, (B) H460R, (C) A2780R and (D) 41MR; and to CBDCA of cells (E) H23R-CBDCA and (F) A2780R-CBDCA. The data was normalized with respect to the untreated control, which was established as 100%. IC50 is the concentration that induces the death of 50% of the cell population. The resistance index (IR) is calculated as IC50 of the resistant cell line/IC50 of the sensitive cell line. P<0.001 was considered a significant change in drug sensitivity (Student's t test).
# (§2) Cell Culture Lung and ovarian cancer cell lines H23, H460, H1299, H727, A2780 and OVCAR3 were purchased from the ATCC (Manassas, Va.) or ECACC (Sigma-Aldrich, Spain). All of them were maintained in RPMI supplemented with 10% exosome-depleted FBS, except for OVCAR3 which was cultured in RPMI with 20% exosome-depleted FBS. FBS was depleted of bovine exosomes by ultracentrifugation at 100,000×g for 16 h at 4° C. The CDDP-resistant variants H23R, H460R, A2780R and OVCAR3R, and the carboplatin-resistant variants H23R-CBDCA and A2780R-CBDCA were established by exposing cells to increasing doses of each platinum-based drug as described. The CDDP sensitive and resistant ovarian cancer cell lines 41M and 41MR were provided by Dr. Kelland (UK) and maintained in DMEM supplemented with 10% exosome-depleted FBS.
# (§3) To determine whether cisplatin-resistant cells transmit their resistance through exosomes we used matched CDDP-sensitive/resistant lung cancer and ovarian cell lines H23S/H23R, H460S/H460R, A2780S/A2780R and 41M/41MR and, that we established previously (Ibanez de Caceres, I. et al. IGFBP-3 hypermethylation-derived deficiency mediates cisplatin resistance in non-small-cell lung cancer. Oncogene 29, 1681-1690 (2010); Vera, O. et al. DNA Methylation of miR-7 is a Mechanism Involved in Platinum Response through MAFG Overexpression in Cancer Cells. Theranostics 7, 4118-4134 (2017)). […] We then isolated exosomes from resistant subtypes H23R, H460R, 41MR and A2780R and confirmed their proper size (around 100 nm) using electron microscopy and NanoSight analysis (FIGS. 2A and B) Once we have confirmed that our samples were successfully enriched in exosomes, we wanted to assess if exosomes from cisplatin-resistant cells could alter the drug response of sensitive cells. For that purpose, firstly, we examined whether exosomes isolated from CDDP resistant subtypes were taken up by sensitive parental cells, we labelled exosomes with PKH26 and exposed them to sensitive cells. The analysis using flow cytometry confirmed the uptake of resistant exosomes in more than 77% of sensitive cells H23S, 41M and A2780S compared with PBS control (FIG. 3).
# [2] = system: 41M/41MR ovarian cancer cell lines; settings: IC50 of resistant cell line/IC50 of sensitive cell line; 41MR vs 41M; p<0.001
# Method: as §1, §2, §3
# [3] = system: H460S/H460R lung cancer cell lines; settings: IC50 of resistant cell line/IC50 of sensitive cell line, p<0.001
# Method: as §1, §2, §3
# [4] = system: H23S/H23R lung cancer cell lines; settings: IC50 of resistant cell line/IC50 of sensitive cell line, p<0.001
# Method: as §1, §2, §3
smiles,measurement,setting,value
N.N.[Cl][Pt][Cl] [cisplatin],Resistant-Index (RI),[1],2.11
same,Resistant-Index (RI),[2],4.26
same,Resistant-Index (RI),[3],2.49
same,Resistant-Index (RI),[4],2.77
